Assay results taken from patent EP0117260A1, “4-Aminobutyric acid derivatives, a process for the preparation thereof and a pharmaceutical composition containing said derivatives” (priority 1983, dated 1984).

Columns and labels:
[1] = Level of hopanthenic acid in blood plasma after oral administration (GC-MS); type: in vivo, SD-male rats; conditions: rat, 389.4 umol/kg, 389.4 µmole/kg, rats, n=4, read-out: Level of hopanthenic acid in the blood plasma (average ± S.D.)
Description: SD-male rats, weighing about 200 g, 7 weeks age, having been fasted overnight (one group: 4 rats) were used. To each rat was orally administered a suspension (2 ml) of a test compound in a 0.5 % carboxymethyl cellulose solution with a stomach sonde (dose of test compound: […], corresponding to 100 mg/kg of calcium hopanthenate).
One or two hours after the aministration, the rats were killed by cutting whole carotid arteries, and the blood was collected. The blood of each rat was centrifuged (2,800 r.p.m., 15 minutes) to separate blood plasma. Concentration of hopanthenic acid in the blood plasma (0.1 ml) was measured by gas chromatography and mass spectrometry.

[2] = Level of hopanthenic acid in the cerebrum after oral administration (GC-MS); type: in vivo, SD-male rats; conditions: rat, 389.4 umol/kg, 389.4 µmole/kg, rats, n=4, read-out: Level of hopanthenic acid in the cerebrum (average ± S.D.)
Description: SD-male rats, weighing about 200 g, 7 weeks age, having been fasted overnight (one group: 4 rats) were used. To each rat was orally administered a suspension (2 ml) of a test compound in a 0.5 % carboxymethyl cellulose solution with a stomach sonde (dose of test compound: 389.4 #mole/kg, corresponding to 100 mg/kg of calcium hopanthenate). Two or three hours after the administration, the cerebrum was taken out and washed with physiological saline solution. To the cerebrum was added 9 times volume of water, and the mixture was homogenated with a homogenizer for one minute under ice-cooling and then centrifuged at 10,000 r.p.m. at 4°C for one hour. Concentration of hopanthenic acid in the supernatant (1 ml, corresponding to 0.1 g of the cerebrum) was measured by gas chromatography and mass spectrometry. The test compounds were the same as used in Experiment 1.

[3] = Maximum tolerance (death observed 48 hours after administration); conditions: mouse, in vivo; mice; dose just smaller than the dose inducing death, observed 48 hours after the administration
[4] = Two hours after the administration

concentration at 1 h ([1]; One hour after the administration)	concentration at 2 h [1, 4]	concentration at 3 h ([2]; Three hours after the administration)	concentration at 2 h [2, 4]	SMILES	MTD at 48 h [3]
19400 ± 1900 ng/mL	14200 ± 1600 ng/mL	370 ± 70 ng/g	700 ± 110 ng/g	CC(C)(CO)[C@@H](O)C(=O)NCCCC(=O)O [Control, Calcium D-4-[N-(2,4-dihydroxy-3,3-dimethyl-n-butyryl)amino]-n-butyrate]	
				CC(C)CC(=O)OCC(C)(C)[C@@H](O)C(=O)NCCCC(=O)O [Compound No. 2, D-4-[N-(4-Isovaleryloxy-3,3-dimethyl-2-hydroxy-n-butyryl)-amino]-n-butyric acid]	> 2000 mg/kg
				CC(C)C(=O)OCC(C)(C)[C@@H](O)C(=O)NCCCC(=O)O	> 2000 mg/kg
